# Assay: Repeat dose tissue distribution study (QWBA, LSC of blood and plasma), 15 daily doses
# Format: in vivo, Sprague-Dawley rats
# Procedure: Three male rats were administered [^14C]PPI-1011 at 100 mg/kg (100 μCi/kg) once daily for 15 days. One rat was sacrificed at each of the following time points after the administration of the day 15 dose: 24, 48, and 96 h. Terminal blood was collected by cardiac puncture directly into tubes with K2EDTA, an aliquot was stored at 4°C until LSC was performed for radioactivity, while the remaining blood was processed to plasma and stored at −20°C until LSC. Following blood collection, the carcasses were frozen in a cold bath with hexanes and dry ice for at least 8 min and then dried and stored at −70°C for at least 12 h. The carcasses were transferred to a −20°C freezer for at least 12 h before embedding.
# QWBA was used to determine radioactivity concentrations in the caecum (contents and mucosa), large intestine (contents and mucosa), small intestine (contents and mucosa), stomach (contents and mucosa), brain, choroid plexus, spinal cord, bone, skin, adrenal gland, pineal body, pituitary gland, thyroid gland, liver, kidney (cortex, medulla and whole kidney), urinary bladder (contents and wall), brown fat, white fat, eye (lens, uveal tract and whole eye), epididymis, prostate gland, testis, ovary, uterus, lung, exorbital lachrymal gland, Harderian gland, pancreas, salivary gland, skeletal muscle, myocardium, cardiac blood, bone marrow, lymph node, spleen, and thymus. As well, LSC was used to determine the total radioactivity in the whole blood and plasma.
# The whole-body cryosectioning technique described by ([Ullberg, 1977]) was the basis for embedding and cryosectioning the rats assigned to this study. Each frozen carcass was shaved, and then the limbs and tail were removed prior to embedding. Chilled (4°C) 3% CMC (low viscosity) was utilized to provide a firm support of reinforced ice around each rat and for a secure attachment to the microtome stage. Upon thorough freezing of the embedding medium surrounding each rat, the frozen CMC block was removed from the freezing bath and four 3/8 inch holes were drilled into the block. One cryosection quality control standard (CQCS) was prepared with a known amount of radioactivity and at least 1 ml aliquots were added to each of the four drilled holes. CQCS data were utilized to evaluate the overall performance of the QWBA assay.
# Each frozen rat was sagittally trimmed (50–100 μm) at −20°C until exposure of a few target tissues employing a Leica Cryomacrocut heavy-duty microtome (Leica Microsystems Inc.,). Disposable stainless steel Feather type H45L knives (Feather Safety Razor Co., Ltd.) were utilized for trimming and sectioning each frozen rat. Several thinner sections (50 μm) were discarded prior to obtaining multiple 50 μm sections at various cryosectioning levels for QWBA analysis. Upon the collection of at least 60 target tissues in multiple cryosectioning levels, the cryosections were kept in the Cryomacrocut cryochamber for a minimum of 18 h for dehydration depending upon the number of cryosections within the cryochamber. After dehydration was complete, the cryosections were transferred to ambient temperature for processing. Mounted whole-body cryosections and a set of 15 standards were sandwiched between a standard phosphor screen and an exposure cassette. All cryosections were exposed to the phosphor screen for 4-days in a cabinet protected with lead prior to scanning using a Typhoon PhosphorImager (Cytiva). MCID™ Analysis software (InterFocus Ltd.) was utilized to generate a calibration curve of the STD nominal concentrations (nCi/g) versus PhosphorImager response (counts/μm^2 minus background) by weighted (1/x) linear regression analysis ([Potchoiba et al., 1995]; [Potchoiba et al., 1998]). The linear regression curve was then utilized to determine the concentration (nCi/g) of total radioactivity in whole-body tissues and blood. Radioactivity concentrations were expressed as μg Eq/g based on the specific activity of the compound in the final dose formulations. […]
# [1] = 24 hr post 15 daily oral 100 mg/kg
# [2] = 48 hr post 15 daily oral 100 mg/kg
smiles,measurement,setting,value
CC/C=C\C/C=C\C/C=C\C/C=C\C/C=C\C/C=C\CCC(=O)O[C@H](CO[14CH2]CCCCCCCCCCCCCCC)COC(=O)CCCCC1CCSS1 (stereo partly shown) [[^14C]PPI-1011],Mean percentage radioactivity (normalized by tissue) at 96 h relative to the 24-h timepoint,15 daily doses,75%
same,Radioactivity in urine within the urinary bladder,15 daily doses,no detection of radioactivity
same,Time of highest blood concentration,15 daily doses,24 HPD
same,"Time of highest levels, adrenal gland",15 daily doses,48 HPD
same,"Time of highest levels, cerebrum",15 daily doses,96 HPD
same,"Time of highest levels, medulla oblongata",15 daily doses,96 HPD
same,"Time of highest levels, nasal turbinates",15 daily doses,48 HPD
same,"Time of highest levels, spinal cord",15 daily doses,96 HPD
same,"Time of highest peak concentration, bladder wall",15 daily doses,48 HPD
same,"Time of highest peak concentration, brown adipose",15 daily doses,24 HPD
same,"Time of highest peak concentration, cecum",15 daily doses,24 HPD
same,"Time of highest peak concentration, esophagus",15 daily doses,24 HPD
same,"Time of highest peak concentration, gastric mucosa",15 daily doses,24 HPD
same,"Time of highest peak concentration, large intestines",15 daily doses,24 HPD
same,"Time of highest peak concentration, ocular lens",15 daily doses,96 HPD
same,"Time of highest peak concentration, prostate",15 daily doses,96 HPD
same,"Time of highest peak concentration, seminal vesicles",15 daily doses,24 HPD
same,"Time of highest peak concentration, small intestines",15 daily doses,24 HPD
same,"Time of highest peak concentration, stomach",15 daily doses,24 HPD
same,"Time of highest peak concentration, subcutaneous adipose",15 daily doses,48 HPD
same,"Time of highest peak concentration, testis",15 daily doses,24 HPD
same,"Time of highest peak concentration, uveal tract",15 daily doses,24 HPD
same,"Time of highest peak concentration, visceral adipose",15 daily doses,48 HPD
same,"Time of highest peak concentration, vitreous body",15 daily doses,24 HPD
same,"Time of highest peak concentration, whole eye",15 daily doses,24 HPD
same,Blood:plasma concentration ratio,"24 HPD, 15 daily doses",2.31
same,Blood:plasma concentration ratio,"48 HPD, 15 daily doses",2.86
same,Blood:plasma concentration ratio,"96 HPD, 15 daily doses",4.23
same,"Radioactivity concentration, Adipose - Brown",[1],2211 μg equivalents/g
same,"Radioactivity concentration, Adipose - Brown (Vessel Wall)",[1],1423 μg equivalents/g
same,"Radioactivity concentration, Adipose - Subcutaneous",[1],1316 μg equivalents/g
same,"Radioactivity concentration, Adipose - Visceral",[1],1402 μg equivalents/g
same,"Radioactivity concentration, Adrenal Gland",[1],1830 μg equivalents/g
same,"Radioactivity concentration, Bladder Wall",[1],102 μg equivalents/g
same,"Radioactivity concentration, Blood - QWBA",[1],55.0 μg equivalents/g
same,"Radioactivity concentration, Bone Marrow",[1],160 μg equivalents/g
same,"Radioactivity concentration, Bone Surface",[1],11.6 μg equivalents/g
same,"Radioactivity concentration, Cecum",[1],300 μg equivalents/g
same,"Radioactivity concentration, Cerebellum",[1],57.8 μg equivalents/g
same,"Radioactivity concentration, Cerebrum",[1],45.7 μg equivalents/g
same,"Radioactivity concentration, Choroid Plexus",[1],186 μg equivalents/g
same,"Radioactivity concentration, Colliculus",[1],68.3 μg equivalents/g
same,"Radioactivity concentration, Diaphragm",[1],204 μg equivalents/g
same,"Radioactivity concentration, Esophagus",[1],161 μg equivalents/g
same,"Radioactivity concentration, Exorbital Lacrimal Gland",[1],98.0 μg equivalents/g
same,"Radioactivity concentration, Gastric Mucosa",[1],415 μg equivalents/g
same,"Radioactivity concentration, Harderian Gland",[1],113 μg equivalents/g
same,"Radioactivity concentration, Intra-Orbital Lacrimal Gland",[1],100 μg equivalents/g
same,"Radioactivity concentration, Kidney",[1],304 μg equivalents/g
same,"Radioactivity concentration, Large Intestines",[1],255 μg equivalents/g
same,"Radioactivity concentration, Liver",[1],412 μg equivalents/g
same,"Radioactivity concentration, Lung",[1],217 μg equivalents/g
same,"Radioactivity concentration, Lymph Node",[1],347 μg equivalents/g
same,"Radioactivity concentration, Medulla Oblongata",[1],51.0 μg equivalents/g
same,"Radioactivity concentration, Muscle",[1],115 μg equivalents/g
same,"Radioactivity concentration, Myocardium",[1],292 μg equivalents/g
same,"Radioactivity concentration, Nasal Turbinates",[1],180 μg equivalents/g
same,"Radioactivity concentration, Ocular - Lens",[1],5.82 μg equivalents/g
same,"Radioactivity concentration, Ocular - Uveal Tract",[1],105 μg equivalents/g
same,"Radioactivity concentration, Ocular - Vitreous Body",[1],2.55 μg equivalents/g
same,"Radioactivity concentration, Ocular - Whole Eye",[1],22.7 μg equivalents/g
same,"Radioactivity concentration, Olfactory Bulb",[1],47.8 μg equivalents/g
same,"Radioactivity concentration, Pancreas",[1],355 μg equivalents/g
same,"Radioactivity concentration, Parotid Gland",[1],296 μg equivalents/g
same,"Radioactivity concentration, Pineal Gland",[1],230 μg equivalents/g
same,"Radioactivity concentration, Pituitary Gland",[1],266 μg equivalents/g
same,"Radioactivity concentration, Prostate",[1],74.6 μg equivalents/g
same,"Radioactivity concentration, Renal Cortex",[1],323 μg equivalents/g
same,"Radioactivity concentration, Renal Medulla",[1],238 μg equivalents/g
same,"Radioactivity concentration, Salivary Gland",[1],308 μg equivalents/g
same,"Radioactivity concentration, Seminal Vesicles",[1],63.2 μg equivalents/g
same,"Radioactivity concentration, Skin - Non-Pigmented",[1],161 μg equivalents/g
same,"Radioactivity concentration, Small Intestines",[1],420 μg equivalents/g
same,"Radioactivity concentration, Spinal Cord",[1],46.8 μg equivalents/g
same,"Radioactivity concentration, Spleen",[1],319 μg equivalents/g
same,"Radioactivity concentration, Stomach",[1],133 μg equivalents/g
same,"Radioactivity concentration, Testis",[1],70.3 μg equivalents/g
same,"Radioactivity concentration, Thalamus",[1],45.4 μg equivalents/g
same,"Radioactivity concentration, Thymus",[1],153 μg equivalents/g
same,"Radioactivity concentration, Thyroid",[1],373 μg equivalents/g
same,"Radioactivity concentration, Whole Brain",[1],48.8 μg equivalents/g
same,"Radioactivity concentration, Adipose - Brown",[2],1917 μg equivalents/g
same,"Radioactivity concentration, Adipose - Brown (Vessel Wall)",[2],1017 μg equivalents/g
same,"Radioactivity concentration, Adipose - Subcutaneous",[2],1498 μg equivalents/g
same,"Radioactivity concentration, Adipose - Visceral",[2],1500 μg equivalents/g
same,"Radioactivity concentration, Adrenal Gland",[2],2346 μg equivalents/g
same,"Radioactivity concentration, Bladder Wall",[2],108 μg equivalents/g
same,"Radioactivity concentration, Blood - QWBA",[2],34.3 μg equivalents/g
same,"Radioactivity concentration, Bone Marrow",[2],113 μg equivalents/g
same,"Radioactivity concentration, Bone Surface",[2],7.66 μg equivalents/g
same,"Radioactivity concentration, Cecum",[2],95.7 μg equivalents/g
same,"Radioactivity concentration, Cerebellum",[2],54.9 μg equivalents/g
same,"Radioactivity concentration, Cerebrum",[2],39.9 μg equivalents/g
same,"Radioactivity concentration, Choroid Plexus",[2],131 μg equivalents/g

# From PMC9081329, “Pharmacokinetics, Mass Balance, Excretion, and Tissue Distribution of Plasmalogen Precursor PPI-1011” (Frontiers in Cell and Developmental Biology, 2022)
